Source: paper PMC8355692, “Antimelanoma activities of chimeric thiazole–androstenone derivatives” (Royal Society Open Science, 2021)

How the values were obtained:
Format in all cases: cell-based
[1] = test system: HFF-1 cell line; assay: Toxicity for normal human foreskin fibroblast cell line; settings: normal human foreskin fibroblast HFF-1; for IC50: read-out: IC50 against HFF1 cell line
From the text: To assess the potential use of lead compounds as anti-melanoma agents, we tested their toxicity for the normal human foreskin fibroblast (HFF-1) cell line taking into consideration that MM is usually surrounded by the cells of this kind. The effects of some of the potent compounds on this cell line were very encouraging (table 4).

[2] = test system: MDA-MB-435; assay: NCI DTP 60 cell line five-concentration test, melanoma panel; settings: for CC50 / GI50: Homo sapiens; for CC50: MDA-MB-435, read-out: LC50 (50% lethal concentration); for GI50 / TGI (total growth inhibition): MDA-MB-435 melanoma cell line
Description: (§1) In our effort to develop new methodologies to synthesize bioactive compounds [11–14], we have synthesized a number of thiazole and thiazolo-androstenone derivatives. We submitted 50 of the synthesized thiazole–androstenone derivatives to the National Cancer Institute (NCI) Development Therapeutics Program (DTP) to test against 60 cancer cell lines (https://dtp.cancer.gov/). These compounds were tested for cytotoxicity at a single dose of 10 µM. […] Eight of these chimeric compounds (figure 2) were selected for further testing at five different concentrations to determine 50% growth inhibition (GI50), total growth inhibition (TGI) and 50% lethal concentration (LC50) values. […] Overall, amino-thiazole derivatives (table 1, 1–7) were more toxic to melanoma cell lines than phenyl thiazole derivatives (8). Fluoro and oxy (hydroxy and methoxy) derivatives were the potent growth inhibitors of the tested cancer cell lines. LOX IMVI cell line was the most susceptible among all the melanoma cell lines used against the tested compounds (table 1). […] Phenyl ethyl derivative (1) inhibited the growth of all the cell lines except SK-MEL-2. […] 2,4-Dimethyl substituted derivative (7) is a potent growth inhibitor of all the tested cell lines of the melanoma panel.

[3] = test system: UACC-257; assay: as above; settings: for CC50 / GI50: Homo sapiens; for CC50: UACC-257, read-out: LC50 (50% lethal concentration); for GI50 / TGI (total growth inhibition): UACC-257 melanoma cell line
Description: as §1

[4] = test system: SK-MEL-28; assay: as above; settings: for CC50: SK-MEL-28, read-out: LC50 (50% lethal concentration)
Description: as §1

[5] = test system: SK-MEL-5; assay: as above; settings: for CC50 / GI50: Homo sapiens; for CC50: SK-MEL-5, read-out: LC50 (50% lethal concentration); for GI50 / TGI (total growth inhibition): SK-MEL-5 melanoma cell line
Description: as §1

[6] = test system: M14; assay: as above; settings: for CC50: M14, read-out: LC50 (50% lethal concentration)
Description: as §1

[7] = test system: SK-MEL-2; assay: as above; settings: for LC50 (50% lethal concentration) / GI50: Homo sapiens; for LC50 (50% lethal concentration): SK-MEL-2, read-out: LC50 (50% lethal concentration); for GI50 / TGI (total growth inhibition): SK-MEL-2 melanoma cell line
Description: as §1

[8] = test system: LOX IMVI; assay: as above; settings: for LC50 (50% lethal concentration) / GI50: Homo sapiens; for LC50 (50% lethal concentration): LOX IMVI, read-out: LC50 (50% lethal concentration); for GI50 / TGI (total growth inhibition): LOX IMVI melanoma cell line
Description: as §1

[9] = test system: UACC-62; assay: as above; settings: for LC50 (50% lethal concentration): UACC-62, read-out: LC50 (50% lethal concentration)
Description: as §1

[10] = test system: MALME-3M; assay: as above; settings: for CC50 / GI50: Homo sapiens; for CC50: Malme-3M, read-out: LC50 (50% lethal concentration); for GI50 / TGI (total growth inhibition): MALME-3M melanoma cell line
Description: as §1

[11] = test system: endonuclease G (EndoG); assay: EndoG immunocytochemistry combined with TUNEL (caspase-independent apoptosis); settings: melanoma cells, 5 or 10 µM, 24 h
From the text: (§2) The elevation was dose-dependent.
(§3) Figure 4. […] (c) Representative images. […] Mean ± s.e.m., n = 4 per group.
(§4) Figure 5. […] (a) Representative images of TUNEL colocalized or not colocalized with each of the three protein markers used in this study. […] Mean ± s.e.m., n = 4 per group.
(§5) Thus, to determine the mechanism of action of our compounds on melanoma cells in vitro, we applied the fluorescent TUNEL assay combined with quantitative ICC for three markers: HO1 for oxidative cell injury, CAD for caspase-mediated apoptosis and EndoG for caspase-independent apoptosis. […] However, none of the compounds or dacarbazine induced apoptotic endonucleases. This is not surprising because apoptotic endonucleases are commonly present in the cell in sufficient amounts to be able to destroy DNA upon cell death without induction (which most likely would not be possible in a dead cell).

[12] = test system: caspase-activated DNase (CAD); assay: CAD immunocytochemistry combined with TUNEL (caspase-mediated apoptosis); settings: melanoma cells, 5 or 10 µM, 24 h
From the text: as §2, §3, §4, §5

[13] = test system: heme oxygenase-1 (HO1); assay: HO1 immunocytochemistry combined with TUNEL (oxidative injury); settings: melanoma cells, 24 h; for HO1 mean intensity (oxidative injury): 10 µM
From the text: as §2, §3, §4, §5

[14] = test system: SK-MEL-28 cell line; assay: Annexin V flow cytometry apoptosis assay; settings: SK-MEL-28, 12 µM
Description: After determining the selective toxicity of potent molecules, we determined their mode of action against the melanoma cell line. Apoptosis or programmed cell death is a physiological process to remove unwanted or damaged mammalian cells. We detected apoptosis mode of cell death by our potent compounds using flow cytometry-based Annexin V assay. Compound 3 caused 23% apoptosis at 6 µM and 54% apoptosis at 12 µM (figure 3). 3-Fluorophenyl derivative (5) was a very potent apoptosis-inducing agent that caused 100% cell death at 12 µM concentration. Dacarbazine, the positive control, caused 22% apoptotic cell death at 200 µM concentration.
Figure 3. Apoptosis measurements using Annexin V flow cytometry assay of compounds 3 and 5 against SK-MEL-28 cell line at 6 and 12 µM concentrations. DMSO and dacarbazine (Daca) are negative and positive controls, respectively. Mean ± s.e.m., n = 3 per group.

[15] = Homo sapiens, SK-MEL-28, SK-MEL-28 melanoma cell line
[16] = Homo sapiens, M14, M14 melanoma cell line
[17] = Homo sapiens, UACC-62, UACC-62 melanoma cell line

Row | Structure (SMILES) | IC50 [1] | CC50 [2] | GI50 [2] | TGI (total growth inhibition) [2] | CC50 [3] | GI50 [3] | GI50 [4, 15] | CC50 ([4]; Homo sapiens) | TGI (total growth inhibition) ([4]; SK-MEL-28 melanoma cell line) | CC50 [5] | GI50 [5] | TGI (total growth inhibition) [5] | GI50 [6, 16] | CC50 ([6]; Homo sapiens) | TGI (total growth inhibition) ([6]; M14 melanoma cell line) | LC50 (50% lethal concentration) [7] | GI50 [7] | TGI (total growth inhibition) [7] | LC50 (50% lethal concentration) [8] | GI50 [8] | other results
1 | C[C@]12CCc3nc(Nc4cccc(O)c4)sc3C1=CC[C@@H]1[C@@H]2CC[C@]2(C)C(=O)CC[C@@H]12 [Compound 4] | 8.6 µM | > 100 µM | 2.53 µM | >100 µM | > 100 µM | 3.69 µM | ≥ 1.32 µM | > 100 µM | 3.31 µM | > 100 µM | 5.7 µM | >100 µM | 2.97 µM | > 100 µM | >100 µM | 91.4 µM | 2.86 µM | 9.99 µM | 5.94 µM | 1.67 µM | TGI (total growth inhibition) [3]: >100 µM; GI50 ([4]; SK-MEL-28 melanoma cell line): 1.32 µM; TGI (total growth inhibition) [8]: 3.15 µM; GI50 [9, 17]: 2.08 µM; LC50 (50% lethal concentration) ([9]; Homo sapiens): > 100 µM; TGI (total growth inhibition) ([9]; UACC-62 melanoma cell line): 5.25 µM; CC50 [10]: > 100 µM; GI50 [10]: 1.49 µM; TGI (total growth inhibition) [10]: 3.01 µM; EndoG mean intensity [11]: No significant induction; CAD mean intensity [12]: No significant induction; colocalization of CAD with TUNEL (caspase-mediated apoptosis) [12]: induced the colocalization of CAD with TUNEL; HO1 mean intensity (oxidative injury) [13]: induced oxidative injury
2 | C[C@]12CCc3nc(Nc4ccccc4)sc3C1=CC[C@@H]1[C@@H]2CC[C@]2(C)C(=O)CC[C@@H]12 [Compound 2] | 21 µM | > 100 µM | 3.49 µM | >100 µM | > 100 µM | 23.8 µM | 20.5 µM | > 100 µM | >100 µM | 66.2 µM | 10.2 µM | 26.0 µM | < 10 µM | > 100 µM | 50.9 µM | > 100 µM | 17.1 µM | 60.8 µM | 48.1 µM | 3.22 µM | TGI (total growth inhibition) [3]: 94.5 µM; GI50 ([6]; M14 melanoma cell line): 7.88 µM; TGI (total growth inhibition) [8]: 10.8 µM; GI50 [9, 17]: < 10 µM; LC50 (50% lethal concentration) ([9]; Homo sapiens): 89.7 µM; GI50 ([9]; UACC-62 melanoma cell line): 9.54 µM; TGI (total growth inhibition) ([9]; UACC-62 melanoma cell line): 29.6 µM; CC50 [10]: > 100 µM; GI50 [10]: 21.2 µM; TGI (total growth inhibition) [10]: >100 µM
3 | C[C@]12CCc3nc(Nc4cccc(F)c4)sc3C1=CC[C@@H]1[C@@H]2CC[C@]2(C)C(=O)CC[C@@H]12 [Compound 5] | 5.9 µM | > 100 µM | 2.74 µM | 13.1 µM | > 100 µM | 5.47 µM | ≥ 1.32 µM | 19.9 µM | 4.27 µM | 9.24 µM | 2.02 µM | 4.32 µM | 2.36 µM | 81.4 µM | 7.23 µM | 26.7 µM | 1.86 µM | 5.19 µM | 6.16 µM | 1.67 µM | toxicity against HFF1 cells (in words) [1]: somewhat toxic; TGI (total growth inhibition) [3]: 64 µM; GI50 ([4]; SK-MEL-28 melanoma cell line): 1.52 µM; TGI (total growth inhibition) [8]: 3.21 µM; GI50 [9, 17]: 1.54 µM; LC50 (50% lethal concentration) ([9]; Homo sapiens): 6.31 µM; TGI (total growth inhibition) ([9]; UACC-62 melanoma cell line): 3.12 µM; CC50 [10]: 26.7 µM; GI50 [10]: 1.94 µM; TGI (total growth inhibition) [10]: 5.04 µM; apoptosis [14]: 100%; EndoG mean intensity [11]: No significant induction; CAD mean intensity [12]: No significant induction; colocalization of CAD with TUNEL (caspase-mediated apoptosis) [12]: induced the colocalization of CAD with TUNEL; HO1 mean intensity (oxidative injury) [13]: induced oxidative injury; HO1 staining in TUNEL-positive cells (oxidative injury) ([13]; 5 or 10 µM): strongly induced oxidative injury
4 | Cc1ccc(Nc2nc3c(s2)C2=CC[C@@H]4[C@H](CC[C@]5(C)C(=O)CC[C@@H]45)[C@@]2(C)CC3)c(C)c1 [Compound 7] | 40 µM | > 100 µM | 3.02 µM | >100 µM | > 100 µM | 3.7 µM | 2.31 µM | > 100 µM | 6.08 µM | 7.47 µM | 1.86 µM | 3.73 µM | 1.85 µM | > 100 µM | 3.79 µM | 22.7 µM | 2.19 µM | 4.74 µM | 5.96 µM | 1.64 µM | TGI (total growth inhibition) [8]: 3.13 µM; GI50 [9, 17]: 1.72 µM; LC50 (50% lethal concentration) ([9]; Homo sapiens): 9.02 µM; TGI (total growth inhibition) ([9]; UACC-62 melanoma cell line): 3.94 µM; CC50 [10]: > 100 µM; GI50 [10]: 1.99 µM; TGI (total growth inhibition) [10]: 5.55 µM
